Series [1] deals with SREBP2. Kind of series: SREBP2 cleavage in HepG2 cells (Western blot). It is filed as cell-based. The conditions noted are these: 20 μM, 1 day, DMEM without FBS. The procedure: (§1) Cancer cells such as HepG2 cells depend on SREBP activation and de novo lipogenesis to survive, particularly in low serum or serum-free conditions. Using this model, compounds were screened over 24 hours for the ability to block cleavage of SREBP to its active form and over 72 hours for an effect on cell viability under serum-free conditions.
Average SREBP2 cleavage in HepG2 cells was measured in the presence of compounds disclosed in Table 1. HepG2 cells were seeded at 500,000 cells per well in 6-well plates in DMEM supplemented with 10% FBS. After 2 days, cells were treated with compounds (20 μM) for 1 day in DMEM without FBS. Western blots were normalized with respect to actin.
On the technique in general: A western blot detects proteins with antibodies after separation by electrophoresis.

Series [2] deals with HepG2 cells. Kind of series: HepG2 cell viability under serum-free conditions (MTS). In kind it is cell-based. The conditions noted are these: Homo sapiens, HepG2, 72 h, 3 days, DMEM without FBS, read-out: Average Viability (% Inhibition, n = 3). The procedure:
as §1
For viability measurements, HepG2 cells were seeded at 5,000 cells per well in 96-well plates in DMEM supplemented with 10% FBS. After 1 day in culture, cells were treated with compounds (20 μM & 5 μM) for 3 days in DMEM without FBS. Viability was measured by MTS […]. […]

Series [3] in a line: PK parameters for representative compounds (i.v. and p.o.), Table 4. The conditions noted are these: in vivo; for half-life: read-out: Terminal t1/2 (converted).

Read-outs that look alike come from different tables or passages of the source.

Turning to `CC(C)(C)c1cc(-c2nc(-c3ccc(NS(=O)(=O)C(F)(F)F)cc3Cl)cs2)ccn1` [Compound 5, N-(4-(2-(2-tert-butylpyridin-4-yl)thiazol-4-yl)-3-chlorophenyl)-1,1,1-trifluoromethanesulfonamide], the “Average SREBP2 cleavage (% Inhibition, n = 3)” value in series [1] is 81.7%. Also, in series [2] (20 μM), the cytotoxicity at 20 µM was found to be 99.2%. In series [3] (iv, i.v. @ 2 mg/kg), the area under the curve AUC(0-t) – broadly, the area under the concentration-time curve up to a stated or last time point – was found to be 41 µM·h; the Cmax (in general, the maximum level reached in the sampled fluid or tissue) turned out to be 10.2 µM; the Vd amounted to 0.345 L/kg; the clearance is 1.58 mL/min/kg. In addition, in series [3] (iv, i.v. @ 2 mg/kg), the half-life was 2.51 h. For the same compound, in series [3] (po, p.o. @ 10 mg/kg), the AUC(0-t) was 302 µM·h; the peak level (Cmax) was 20.3 µM; the Tmax (as a rule, the time at which the peak concentration occurs) was found to be 1 h; the half-life was 6.96 h. In addition, the bioavailability in series [3] (po, p.o. @ 10 mg/kg vs i.v. @ 2 mg/kg) stood at 149%.
In the case of `O=S(=O)(Nc1ccc(-c2csc(-c3cccc(N4CCCCC4)c3)n2)c(Cl)c1)C(F)(F)F` [Compound 88, N-(3-chloro-4-{2-[3-(piperidin-1-yl)phenyl]-1,3-thiazol-4-yl}phenyl)-1,1,1-trifluoromethanesulfonamide], the cytotoxicity at 5 µM in series [2] turned out to be 19%.
On the same count and under the same terms, under `O=S(=O)(Nc1ccc(-c2csc(-c3csc4ccccc34)n2)c(Cl)c1)C(F)(F)F` [Compound 90, N-{4-[2-(1-benzothiophen-3-yl)-1,3-thiazol-4-yl]-3-chlorophenyl}-1,1,1-trifluoromethanesulfonamide] stands 99%; under `O=S(=O)(Nc1ccc(-c2csc(-c3ccc(F)cc3CN3CCCC3)n2)c(Cl)c1)C(F)(F)F` [Compound 91, N-(3-chloro-4-{2-[4-fluoro-2-(pyrrolidin-1-ylmethyl)phenyl]-1,3-thiazol-4-yl}phenyl)-1,1,1-trifluoromethanesulfonamide], 4%; under `O=S(=O)(Nc1ccc(-c2csc(-c3ccnc(NC4CCCC4)c3)n2)c(Cl)c1)C(F)(F)F` [Compound 92, N-(3-chloro-4-{2-[2-(cyclopentylamino)pyridin-4-yl]-1,3-thiazol-4-yl}phenyl)-1,1,1-trifluoromethanesulfonamide], 94%.
Same read-out and setting: under `O=S(=O)(Nc1ccc(-c2csc(-c3c[nH]c4ccccc34)n2)c(Cl)c1)C(F)(F)F` [Compound 93, N-{3-chloro-4-[2-(1H-indol-3-yl)-1,3-thiazol-4-yl]phenyl}-1,1,1-trifluoromethanesulfonamide] stands 82%.
As to `O=S(=O)(Nc1ccc(-c2csc(-c3ccnc4ccccc34)n2)c(Cl)c1)C(F)(F)F` [Compound 94, N-[3-chloro-4-[2-(4-quinolyl)thiazol-4-yl]phenyl]-1,1,1-trifluoro-methanesulfonamide], in series [2], the cytotoxicity at 5 µM is 84%.
Consider `O=S(=O)(Nc1ccc(-c2csc(-c3ccnc(Cl)c3)n2)c(Cl)c1)C(F)(F)F` [Compound 95, N-(3-chloro-4-(2-(2-chloropyridin-4-yl)thiazol-4-yl)phenyl)-1,1,1-trifluoromethanesulfonamide], for which the cytotoxicity at 5 µM in series [2] came out at 86%.
